Assay [1] has as its system human myelogenous leukemic cells (HL-60). Nature of the assay: Inhibition of the proliferation of human myelogenous leukemic cells (HL-60), Trypan Blue staining. Type of assay: cell-based. To be noted: HL-60, 96 h, 37° C., 4 days, relative to control (0.1% ethanol), read-out: Percent Inhibition of proliferation, HL-60 cells; for inhibition at 1 µg/mL: 1 μg/ml; for inhibition at 5 µg/mL: 5 μg/ml. As to the method: Test on the Inhibition of the Proliferation of Human Myelogenous Leukemic Cells (HL-60) Experimental method
The test on the inhibition of the proliferation of human myelogenous leukemic cells was conducted by a well known method. The human myelogenous leukemic cells (HL-60) were added to an RPMI culture solution containing 10% bovine fetal serum, the number of cells in the culture solution was adjusted to 1×10^5 cells/ml, a solution in ethanol of the compound under test was added to give a concentration of 5 μg/ml or 1 μg/ml, and the mixture was subjected to stationary culture at 37° C. for 4 days. As a control, a culture solution containing 0.1% of ethanol was similarly cultured. The culture solutions were stained by the Trypan Blue staining method and the surviving cell number was measured to determine the degree of inhibition relative to the control.

Assay [2] deals with cells originated from human mouth tumour (KB-cells). Nature of the assay: Inhibition of the proliferation of cells originated from human mouth tumour (KB-cells), Trypan Blue staining. Type of assay: cell-based. The note with it: 96 h, 37° C., 4 days, relative to control (0.1% ethanol), read-out: Percent Inhibition of proliferation, KB-cells; for inhibition at 1 µg/mL: 1 μg/ml; for inhibition at 5 µg/mL: 5 μg/ml. How it is done: Test on the Inhibition of the Proliferation of Cells Originated from Human Mouth Tumour (KB-cells) Experimental method
The test on the inhibition of the proliferation of cells originated from human mouth tumour was conducted by a well known method. The cells originated from human mouth tumour (KB-cells) were added to an Eagle's MEM culture solution containing 10% bovine fetal serum, the number of cells in the culture solution was adjusted to 1×10^5 cells/ml, a solution in ethanol of the compound under test was added to give a concentration of 5 μg/ml or 1 μg/ml, and the mixture was subjected to stationary culture at 37° C. for 4 days. As a control, a culture solution containing 0.1% of ethanol was similarly cultured. The culture solutions were stained by the Trypan Blue staining method and the surviving cell number was measured to determine the degree of inhibition relative to the control.

In the case of `CCCCCC=CC=C1C(=O)C=C[C@@H]1C/C=C\C/C=C/C(=O)O` [(2E,5Z,9Z,14EZ)-11-oxoprosta-2,5,9,12,14-pentaenoic acid], in assay [1], the inhibition at 1 µg/mL turned out to be 4.8% and the inhibition at 5 µg/mL worked out at 98.3%. Further, in assay [2], the inhibition at 1 µg/mL is 0% and the inhibition at 5 µg/mL is 100%.

Consider `CCCCC[C@H](O)/C=C/[C@H]1C(=O)C[C@H](O)[C@@H]1C/C=C\C/C=C/C(=O)O` [Trans-Δ^2 -PGD2, (2E,5Z,13E)-(9α,15S)-9,15-dihydroxy-11-oxoprosta-2,5,13-trienoic acid], for which the results for the inhibition at 1 µg/mL in assay [1] and in assay [2] were 0% and 2.1%, respectively. In addition, the inhibition at 5 µg/mL in assay [1] is 19.4%; in assay [2], 17.9%.

As for `CCCCC[C@H](O)/C=C/[C@H]1C(=O)C=C[C@@H]1C/C=C\C/C=C/C(=O)O` [Trans-Δ^2-9-deoxy-Δ^9 -PGD2, (2E,5Z,9Z,13E)-(15S)-11-oxo-15-hydroxyprosta-2,5,9,13-tetraenoic acid], in assay [1], the inhibition at 1 µg/mL was 1.4% and the inhibition at 5 µg/mL is 99%. In addition, in assay [2], the inhibition at 1 µg/mL was found to be 9.7% and the inhibition at 5 µg/mL amounted to 98.5%.

The record behind these values is patent publication US4562204A, “Trans-Δ^2 -prostaglandin D derivatives, process for their preparation and compositions containing them” (Ono Pharmaceutical Co., Ltd., priority 1982, dated 1985).
